Our source for the IC50 values is patent publication US11485740B2, “Inhibitors of TRPC6” (Boehringer Ingelheim International GmbH, priority 2018, dated 2022).

This assay concerns the target T1, human TRPC6 (Homo sapiens, UniProt Q9Y210).
T1 construct: expressed in transfected cells
T1 sequence (Q9Y210 1-931): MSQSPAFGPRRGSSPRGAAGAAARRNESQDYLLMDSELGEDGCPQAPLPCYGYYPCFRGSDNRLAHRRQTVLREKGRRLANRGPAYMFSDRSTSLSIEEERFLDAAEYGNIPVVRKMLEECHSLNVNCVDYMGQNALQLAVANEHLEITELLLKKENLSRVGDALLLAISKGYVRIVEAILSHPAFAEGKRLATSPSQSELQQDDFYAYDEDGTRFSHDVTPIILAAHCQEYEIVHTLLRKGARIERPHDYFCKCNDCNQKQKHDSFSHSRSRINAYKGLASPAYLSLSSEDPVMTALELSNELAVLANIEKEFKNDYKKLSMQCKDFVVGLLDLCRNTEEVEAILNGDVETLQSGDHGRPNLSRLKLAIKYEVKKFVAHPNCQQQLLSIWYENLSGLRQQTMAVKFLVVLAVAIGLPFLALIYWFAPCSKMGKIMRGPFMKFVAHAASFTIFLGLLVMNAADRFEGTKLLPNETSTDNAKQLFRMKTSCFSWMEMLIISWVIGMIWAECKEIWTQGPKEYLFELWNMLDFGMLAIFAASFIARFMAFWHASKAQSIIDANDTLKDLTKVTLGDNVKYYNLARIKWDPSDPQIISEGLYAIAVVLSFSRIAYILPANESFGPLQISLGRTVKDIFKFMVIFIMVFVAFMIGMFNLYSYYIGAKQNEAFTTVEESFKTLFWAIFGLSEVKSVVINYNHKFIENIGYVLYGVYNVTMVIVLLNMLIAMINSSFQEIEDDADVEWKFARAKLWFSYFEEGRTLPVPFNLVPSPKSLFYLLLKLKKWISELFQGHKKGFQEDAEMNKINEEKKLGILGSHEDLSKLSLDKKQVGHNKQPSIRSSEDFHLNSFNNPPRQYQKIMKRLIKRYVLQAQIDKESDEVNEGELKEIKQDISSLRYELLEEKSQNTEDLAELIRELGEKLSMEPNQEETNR
Briefly: High throughput screening assay: Fluo4/AM calcium fluorescence in HEK293/TREx cells expressing human TRPC6, agonist GSK1702934A (single concentration 10 μM and IC50 curves). The assay is classed as cell-based. The following applies: antagonist effect against human TRPC6, 7 concentrations 20 μM to 0.027 μM, triplicate. Put shortly: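 HEK293/TREx cells stably carrying tetracycline-induced (1 μg/ml) human TRPC6, loaded with Fluo4/AM (0.5 μM, 60 min, RT), pretreated 2 min with compound (10 μM final in screen), then stimulated with GSK1702934A in high-Ca2+ Ringer's (20 mM Ca2+ final). Fluorescence ratio over ~3 min normalized to no-compound and control-blocker wells; IC50 from triplicate curves.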
With `COc1cc(C(=O)N2CCC(c3ccc(N)nn3)CC2)ncc1-c1ccc(OC(C)C)c(Cl)c1` [Compound 19], the half-maximal inhibitory concentration (IC50) – broadly, the concentration that inhibits the measured activity by half – worked out at 610 nM.
Turning to `Nc1ccc(C2CCN(C(=O)c3ccc(-c4ccccc4)cc3)CC2)nn1` [Compound 1, [4-(6-Amino-pyridazin-3-yl)-piperidin-1-yl]-biphenyl-4-yl-methanone], the IC50 worked out at 3800 nM.
Regarding `COc1cc(C(=O)N2CCC(c3ccc(N)nn3)CC2)ncc1-c1ccc(C(F)(F)F)cc1` [Compound 27, 6-(1-{4-Methoxy-5-[4-(trifluoromethyl)phenyl]pyridine-2-carbonyl}piperidin-4-yl)pyridazin-3-amine], the 50% inhibitory concentration (IC50) worked out at 36 nM.
In the case of `COc1cc(C(=O)N2CCC(c3ccc(N)nn3)CC2)ncc1-c1ccc(OC(C)C)cc1` [Compound 30, [4-(6-Amino-pyridazin-3-yl)-piperidin-1-yl]-[5-(4-isopropoxy-phenyl)-4-methoxy-pyridin-2-yl]-methanone], the IC50 was found to be 340 nM.
In the case of `COc1cc(C(=O)N2CCN(c3cnc(N)cc3OC)C[C@H]2CO)ncc1-c1ccccc1` [Compound 89, [(S)-4-(6-Amino-4-methoxy-pyridin-3-yl)-2-hydroxymethyl-piperazin-1-yl]-(4-methoxy-5-phenyl-pyridin-2-yl)-methanone] it was 540 nM.
`COc1cc(C(=O)N2CCN(c3cnc(N)cc3OC)CC2CC(F)F)ncc1-c1ccc(C(F)(F)F)cc1` (single isomer, unassigned) [Compound 109]: the IC50 is 330 nM.
In the case of `COc1cc(C(=O)N2CCC(c3ccc(N)nn3)CC2)ccc1-c1cnc(OC(C)C)nc1` [Compound 62, [4-(6-Amino-pyridazin-3-yl)-piperidin-1-yl]-[4-(2-isopropoxy-pyrimidin-5-yl)-3-methoxy-phenyl]-methanone], the IC50 came out at 1100 nM.
With `COc1cc(-c2cnc(C(=O)N3CCC(c4ccc(N)nn4)CC3)cc2OC)ccc1OC(F)(F)F` [Compound 13], the 50% inhibitory concentration (IC50) amounted to 88 nM.
Consider `COc1cc(C(=O)N2CCC(c3ccc(N)nn3)CC2)ncc1-c1ccc(C2CC2)nc1` [Compound 43, [4-(6-Amino-pyridazin-3-yl)-piperidin-1-yl]-(6′-cyclopropyl-4-methoxy-[3,3′]bipyridinyl-6-yl)-methanone], for which the concentration for half-maximal inhibition (IC50) is 390 nM.
Regarding `COc1cc(C(=O)N2CCC(c3ccc(N)nn3)CC2)ccc1-c1ccc(OCC2CC2(F)F)nc1` (centres unmarked) [Compound 76, [4-(6-Amino-pyridazin-3-yl)-piperidin-1-yl]{4-[6-(2,2-difluoro-cyclopropylmethoxy)-pyridin-3-yl]-3-methoxy-phenyl}-methanone], the IC50 is 380 nM.
In the case of `CCOc1ccc(-c2cnc(C(=O)N3CCC(c4ccc(N)nn4)CC3)cc2OC)cc1` [Compound 37, [4-(6-Amino-pyridazin-3-yl)-piperidin-1-yl]-[5-(4-ethoxy-phenyl)-4-methoxy-pyridin-2-yl]-methanone] it was 320 nM; in that of `COc1cc(C(=O)N2CCC(c3ccc(N)nn3)CC2)ncc1-c1ccc(OC(F)(F)F)nc1` [Compound 48, [4-(6-Amino-pyridazin-3-yl)-piperidin-1-yl]-(4-methoxy-6′-trifluoromethoxy-[3,3′]bipyridinyl-6-yl)-methanone], 130 nM.
For the compound `CCOc1ccc(-c2cnc(C(=O)N3CCC(c4ccc(N)nn4)CC3)cc2OC)cn1` [Compound 45, [4-(6-Amino-pyridazin-3-yl)-piperidin-1-yl]-(6′-ethoxy-4-methoxy-[3,3′]bipyridinyl-6-yl)-methanone], the concentration for half-maximal inhibition (IC50) came out at 440 nM.
In the case of `COc1cc(C(=O)N2CCC(c3ccc(N)nn3)CC2)ncc1-c1ccc(C(F)(F)F)nc1` [Compound 42], the half-maximal inhibitory concentration (IC50) was 700 nM.
